{"source": "paper PMC11833279", "about": "“Versatile Features of an Antibody Mimetic Peptide and Its Variants” (Journal of Peptide Science, 2025)", "key": {"HIV‐1NL4–3 [1]": {"system": "HIV‐1NL4–3", "assay_type": "cell-based", "details": "CEMx174 SEAP indicator cells, HIV‐1NL4–3, SEAP activity three days after infection; mean and standard error of at least three independent experiments; read-out: HIV‐1 neutralizing activity IC50", "procedure": "The plasmid HIV‐1pBRNL4–3, kindly provided by F. Kirchhoff, Ulm, was propagated in XL‐1 Blue competent cells (Stratagene – an Agilent Technologies Division, Waldbronn, Germany) and transfected into 293 T cells using FuGENE HD (Roche, Mannheim, Germany). After 48 h, supernatants were cleared by filtering through 0.22 μm Millex‐GS units (Millipore, Schwalbach, Germany) and stored in aliquots at −80°C.\nThe indicator cell line CEMx174, which was kindly provided by R. E. Means and R. C. Desrosiers, contained the gene for the secreted alkaline phosphatase (SEAP) under the control of the simian immunodeficiency virus long terminal repeat. Three days after HIV‐1NL4–3 infection, cell culture supernatants were removed and analyzed for SEAP activity using the Phospha‐Light kit (Life Technologies, Darmstadt, Germany) according to the manufacturer's recommendations. Data represent mean and standard error of at least three independently performed experiments."}, "HIV‐1NL4–3 [2]": {"system": "HIV‐1NL4–3", "details": "HIV‐1 neutralization; read-out: HIV‐1 neutralizing activity IC50; cited from earlier work", "from_the_text": "Addressing the significance of the disulfide bridge in H1H3, a linear variant (H1H3s) was generated, in which the two cysteine residues were replaced by serine (see Table 1 for peptide sequences)."}, "GALV‐RV": {"system": "GALV‐RV", "assay_type": "cell-based", "details": "read-out: GALV‐RV transduction enhancing effect EC50; Jurkat cells, GFP‐expressing GALV‐RV, peptide‐virus mix incubated 10 min, GFP by flow cytometry 2 days posttransduction; three independent experiments ± SD", "procedure": "For the generation of GFP‐expressing γ‐retroviral vector pseudotyped with the glycoprotein of gibbon ape leukemia virus (GALV‐RV), 800,000 HEK293T cells were initially seeded and cotransfected as previously described using following plasmids:GFP‐expressing Murine leukemia virus (MLV) vector E200 pcmE26‐gfp (1.15 μg), E848 pCsGPpA‐ed (0.95 μg), and GALV glycoprotein (0.4 μg).\nFor the determination of transduction enhancement of GFP‐expressing GALV‐RV, 50,000 Jurkat cells (ATCC, TIB‐152) were seeded in 180 μL RPMI medium (Gibco, 11875093) supplemented with 10% inactivated fetal calf serum (FCS, Gibco, 10437028), 2 mM L‐glutamine (PAN‐Biotech, P04–80050), 100 U/mL penicillin, and 100 μg/mL streptomycin (PAN‐Biotech, P06–07050). Different concentrations of peptides were 1:1 (v/v) mixed with GALV‐RV (1280 dilution on cells) and incubated for 10 min. Subsequently, 20 μL of the virus‐peptide mix was added to cells, and 2 days posttransduction, GFP‐expression was analyzed by flow cytometry using CytoFlex (Beckmann Coulter), and the evaluation was carried out with FlowJo™ (Version 10.8.1)."}}, "note": "Like-named read-outs stand apart in the source and are kept apart here. Non-standard residues stand in square brackets, D forms with d. Residues, ends and D or L forms follow the SMILES beside them. *: point of attachment. Biotin = O=C1N[C@H]2[C@H](CS[C@H]2CCCCC(=O)*)N1; Ahx = NCCCCCC(=O)O; βAla = NCCC(=O)O", "data": [{"compound": "CC[C@@H](C)[C@@H](NC(=O)[C@H](NC(=O)[C@@H](Cc1ccccc1)NC(=O)[C@@H](CC(N)=O)NC(=O)[C@@H](CO)NC(=O)[C@@H](Cc1ccccc1)NC(=O)[C@@H](CCCNC(=N)N)NC(=O)[C@@H](Cc1ccc(O)cc1)NC(=O)CNC(C)=O)C(C)C)C(=O)N[C@H](Cc1c[nH]cn1)C(=O)N[C@H](Cc1c[nH]c2ccccc12)C(=O)NCC(=O)NCCC(=O)NCC(=O)NCCCCCC(=O)NCC(=O)N[C@H](CCCCNC(=O)CCCC[C@@H]1SC[C@@H]2NC(=O)N[C@@H]21)C(=O)NCC(=O)NCCCCCC(=O)N[C@H](CO)C(=O)N[C@@H](C(=O)NCC(=O)N1CCC[C@@H]1C(=O)N[C@H](Cc1ccc(O)cc1)C(=O)N[C@H](CO)C(=O)N[C@H](Cc1c[nH]c2ccccc12)C(=O)N[C@H](CC(=O)O)C(=O)N[C@H](CC(=O)O)C(=O)N[C@H](CO)C(=O)N1CCC[C@@H]1C(=O)N[C@H](CCC(N)=O)C(=O)N[C@H](CC(=O)O)C(=O)N[C@H](CC(N)=O)C(=O)N[C@H](Cc1ccc(O)cc1)C(=O)N[C@H](CCSC)C(=O)N[C@H](CC(=O)O)C(=O)N[C@H](CO)C(N)=O)C(C)C", "note": "[H1H3s‐allD] (Ac-G[dY][dR][dF][dS][dN][dF][dV][dI][dH][dW]G[βAla]G[Ahx]G[dK](Biotin)G[Ahx][dS][dV]G[dP][dY][dS][dW][dD][dD][dS][dP][dQ][dD][dN][dY][dM][dD][dS]-NH2)", "values": [{"measurement": "IC50", "setting": "HIV‐1NL4–3 [1]", "value": "1900 ± 400", "unit": "nM"}]}, {"compound": "Ac‐GYRFSNFVIHW‐GB ^b GX ^c G‐K*‐GX‐[CVGPYSWDDSPQDNYMDC]‐NH2 (disulfide) [Peptide H1H3, b12 paratope mimetic peptide presenting heavy chain CDRs H1 and H3, H3 disulfide‐bridged, biotinylated lysine between them]", "values": [{"measurement": "IC50", "setting": "HIV‐1NL4–3 [2]", "value": 1700, "unit": "nM"}]}, {"compound": "CC[C@H](C)[C@H](NC(=O)[C@@H](NC(=O)[C@H](Cc1ccccc1)NC(=O)[C@H](CC(N)=O)NC(=O)[C@H](CO)NC(=O)[C@H](Cc1ccccc1)NC(=O)[C@H](CCCNC(=N)N)NC(=O)[C@H](Cc1ccc(O)cc1)NC(=O)CNC(C)=O)C(C)C)C(=O)N[C@@H](Cc1c[nH]cn1)C(=O)N[C@@H](Cc1c[nH]c2ccccc12)C(=O)NCC(=O)NCCC(=O)NCC(=O)NCCCCCC(=O)NCC(=O)N[C@@H](CCCCNC(=O)CCCC[C@@H]1SC[C@@H]2NC(=O)N[C@@H]21)C(=O)NCC(=O)NCCCCCC(=O)N[C@@H](CO)C(=O)N[C@H](C(=O)NCC(=O)N1CCC[C@H]1C(=O)N[C@@H](Cc1ccc(O)cc1)C(=O)N[C@@H](CO)C(=O)N[C@@H](Cc1c[nH]c2ccccc12)C(=O)N[C@@H](CC(=O)O)C(=O)N[C@@H](CC(=O)O)C(=O)N[C@@H](CO)C(=O)N1CCC[C@H]1C(=O)N[C@@H](CCC(N)=O)C(=O)N[C@@H](CC(=O)O)C(=O)N[C@@H](CC(N)=O)C(=O)N[C@@H](Cc1ccc(O)cc1)C(=O)N[C@@H](CCSC)C(=O)N[C@@H](CC(=O)O)C(=O)N[C@@H](CO)C(N)=O)C(C)C", "note": "[Peptide H1H3s] (Ac-GYRFSNFVIHWG[βAla]G[Ahx]GK(Biotin)G[Ahx]SVGPYSWDDSPQDNYMDS-NH2)", "values": [{"measurement": "IC50", "setting": "HIV‐1NL4–3 [1]", "value": "6300 ± 100", "unit": "nM"}]}, {"compound": "CC[C@H](C)[C@H](NC(=O)[C@@H](NC(=O)[C@H](Cc1ccccc1)NC(=O)[C@H](CC(N)=O)NC(=O)[C@H](CO)NC(=O)[C@H](Cc1ccccc1)NC(=O)[C@H](CCCNC(=N)N)NC(=O)[C@H](Cc1ccc(O)cc1)NC(=O)CNC(C)=O)C(C)C)C(=O)N[C@@H](Cc1c[nH]cn1)C(=O)N[C@@H](Cc1c[nH]c2ccccc12)C(=O)NCC(=O)NCCC(=O)NCC(=O)NCCCCCC(=O)NCC(=O)N[C@@H](CCCCNC(=O)CCCC[C@@H]1SC[C@@H]2NC(=O)N[C@@H]21)C(=O)NCC(=O)NCCCCCC(=O)N[C@@H](CO)C(=O)N[C@H](C(=O)NCC(=O)N1CCC[C@H]1C(=O)N[C@@H](Cc1ccc(O)cc1)C(=O)N[C@@H](CO)C(=O)N[C@@H](Cc1c[nH]c2ccccc12)C(=O)N[C@@H](CC(=O)O)C(=O)N[C@@H](CCCCN)C(=O)N[C@@H](CO)C(=O)N1CCC[C@H]1C(=O)N[C@@H](CCC(N)=O)C(=O)N[C@@H](CC(=O)O)C(=O)N[C@@H](CC(N)=O)C(=O)N[C@@H](Cc1ccc(O)cc1)C(=O)N[C@@H](CCSC)C(=O)N[C@@H](CC(=O)O)C(=O)N[C@@H](CO)C(N)=O)C(C)C", "note": "[H1H3s‐D100^bK] (Ac-GYRFSNFVIHWG[βAla]G[Ahx]GK(Biotin)G[Ahx]SVGPYSWDKSPQDNYMDS-NH2)", "values": [{"measurement": "EC50", "setting": "GALV‐RV", "value": "630 ± 40", "unit": "nM"}]}, {"compound": "CC[C@H](C)[C@H](NC(=O)[C@H](NC(=O)[C@H](Cc1ccccc1)NC(=O)[C@@H](CC(N)=O)NC(=O)[C@H](CO)NC(=O)[C@@H](Cc1ccccc1)NC(=O)[C@H](CCCNC(=N)N)NC(=O)[C@@H](Cc1ccc(O)cc1)NC(=O)CNC(C)=O)C(C)C)C(=O)N[C@H](Cc1c[nH]cn1)C(=O)N[C@@H](Cc1c[nH]c2ccccc12)C(=O)NCC(=O)NCCC(=O)NCC(=O)NCCCCCC(=O)NCC(=O)N[C@@H](CCCCNC(=O)CCCC[C@@H]1SC[C@@H]2NC(=O)N[C@@H]21)C(=O)NCC(=O)NCCCCCC(=O)N[C@H](CO)C(=O)N[C@@H](C(=O)NCC(=O)N1CCC[C@@H]1C(=O)N[C@@H](Cc1ccc(O)cc1)C(=O)N[C@H](CO)C(=O)N[C@@H](Cc1c[nH]c2ccccc12)C(=O)N[C@H](CC(=O)O)C(=O)N[C@@H](CC(=O)O)C(=O)N[C@H](CO)C(=O)N1CCC[C@H]1C(=O)N[C@H](CCC(N)=O)C(=O)N[C@@H](CC(=O)O)C(=O)N[C@H](CC(N)=O)C(=O)N[C@@H](Cc1ccc(O)cc1)C(=O)N[C@H](CCSC)C(=O)N[C@@H](CC(=O)O)C(=O)N[C@H](CO)C(N)=O)C(C)C", "note": "[H1H3s‐L/D] (Ac-G[dY]R[dF]S[dN]F[dV]I[dH]WG[βAla]G[Ahx]GK(Biotin)G[Ahx][dS][dV]G[dP]Y[dS]W[dD]D[dS]P[dQ]D[dN]Y[dM]D[dS]-NH2)", "values": [{"measurement": "IC50", "setting": "HIV‐1NL4–3 [1]", "value": "> 60000", "unit": "nM"}]}]}
